Measured values published in ChEMBL document CHEMBL1201862, “PubChem BioAssay data set” (2004).
Active and inactive are the calls of the source.

Experiments:
[1] = cytotoxicity in HEK-293T cells, dose response, cytotoxicity control for TCR NF-kB inhibitor project, luminescence, T-cell screen hits (AID 489026); assay type: functional, cell-based;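 also: cells exposed to compound about 14 hours before the viability readout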
[2] = biological target: T1, Peroxisome proliferator-activated receptor gamma/Nuclear receptor coactivator 3 (Homo sapiens, UniProt P37231); assay: (§1) TR-FRET dose response biochemical High Throughput Screening assay for agonists of the steroid receptor coactivator 3 (SRC-3) recruitment by the peroxisome proliferator-activated receptor gamma (PPAR gamma): non-selective agonists. [Related pubchem assays: 1301 (Confirmation screen.), 1048 (Primary screen.)]; assay type: functional
T1 sequence (P37231 whole entry): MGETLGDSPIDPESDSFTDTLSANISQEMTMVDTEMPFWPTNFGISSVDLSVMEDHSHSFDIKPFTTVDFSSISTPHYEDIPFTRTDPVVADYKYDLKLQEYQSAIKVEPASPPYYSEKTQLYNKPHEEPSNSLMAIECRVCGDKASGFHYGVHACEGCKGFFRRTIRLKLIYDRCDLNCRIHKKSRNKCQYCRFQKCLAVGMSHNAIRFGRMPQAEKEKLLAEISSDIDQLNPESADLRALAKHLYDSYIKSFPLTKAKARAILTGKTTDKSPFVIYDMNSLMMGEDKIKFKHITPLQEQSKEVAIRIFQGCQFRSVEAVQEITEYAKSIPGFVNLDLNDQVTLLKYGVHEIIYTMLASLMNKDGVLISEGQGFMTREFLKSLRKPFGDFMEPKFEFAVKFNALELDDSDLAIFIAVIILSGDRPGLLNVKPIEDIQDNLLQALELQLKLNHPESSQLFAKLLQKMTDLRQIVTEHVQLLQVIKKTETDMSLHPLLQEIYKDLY
T1 sequence (Q9Y6Q9 whole entry, further chain): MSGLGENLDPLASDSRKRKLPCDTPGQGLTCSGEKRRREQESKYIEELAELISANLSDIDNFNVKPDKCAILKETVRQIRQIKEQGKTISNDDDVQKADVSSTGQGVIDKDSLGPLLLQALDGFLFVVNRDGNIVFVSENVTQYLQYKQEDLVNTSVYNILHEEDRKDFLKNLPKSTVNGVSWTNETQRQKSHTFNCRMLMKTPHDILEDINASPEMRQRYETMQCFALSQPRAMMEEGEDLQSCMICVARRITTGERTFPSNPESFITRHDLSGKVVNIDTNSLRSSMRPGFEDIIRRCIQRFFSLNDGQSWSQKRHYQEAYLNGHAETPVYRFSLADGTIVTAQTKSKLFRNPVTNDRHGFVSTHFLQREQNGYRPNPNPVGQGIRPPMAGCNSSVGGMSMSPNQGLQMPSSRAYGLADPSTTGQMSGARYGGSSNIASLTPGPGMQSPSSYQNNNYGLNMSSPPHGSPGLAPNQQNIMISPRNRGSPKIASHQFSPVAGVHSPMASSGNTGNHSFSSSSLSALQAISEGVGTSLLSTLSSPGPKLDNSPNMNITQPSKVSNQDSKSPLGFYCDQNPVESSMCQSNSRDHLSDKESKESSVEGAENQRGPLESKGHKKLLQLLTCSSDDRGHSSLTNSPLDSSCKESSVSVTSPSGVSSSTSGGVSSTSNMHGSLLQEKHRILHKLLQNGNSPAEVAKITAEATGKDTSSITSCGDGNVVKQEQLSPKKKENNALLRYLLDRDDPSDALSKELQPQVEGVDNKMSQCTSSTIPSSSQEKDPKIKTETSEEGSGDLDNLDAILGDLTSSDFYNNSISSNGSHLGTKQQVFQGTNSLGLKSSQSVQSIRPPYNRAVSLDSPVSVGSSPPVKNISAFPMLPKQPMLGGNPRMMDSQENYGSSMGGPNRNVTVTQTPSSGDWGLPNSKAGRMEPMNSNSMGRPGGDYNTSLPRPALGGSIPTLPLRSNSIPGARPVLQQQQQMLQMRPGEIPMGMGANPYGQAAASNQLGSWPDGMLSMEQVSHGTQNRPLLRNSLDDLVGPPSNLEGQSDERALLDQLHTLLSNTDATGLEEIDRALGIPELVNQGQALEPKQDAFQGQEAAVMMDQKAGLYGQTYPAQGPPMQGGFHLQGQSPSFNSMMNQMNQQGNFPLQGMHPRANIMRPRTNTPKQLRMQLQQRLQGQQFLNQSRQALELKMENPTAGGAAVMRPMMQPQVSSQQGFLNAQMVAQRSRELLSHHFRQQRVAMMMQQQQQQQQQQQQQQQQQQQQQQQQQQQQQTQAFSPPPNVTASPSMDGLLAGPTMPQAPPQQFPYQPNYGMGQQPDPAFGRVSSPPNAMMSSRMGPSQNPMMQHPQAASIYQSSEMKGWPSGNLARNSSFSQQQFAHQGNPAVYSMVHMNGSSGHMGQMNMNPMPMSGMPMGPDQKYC

[3] = biological target: T2, Peroxisome proliferator-activated receptor gamma/Nuclear receptor coactivator 1 (Homo sapiens, UniProt P37231); assay: as §1, with “1 (SRC-1)” for “3 (SRC-3)”, “assays (depositor defined):AID1300, AID1808, AID504735, AID631]” for “assays: 1301 (Confirmation screen.), 1048 (Primary screen.)]”; assay type: protein assay
T2 sequence (P37231 whole entry): as the sequence (P37231 whole entry) above
T2 sequence (Q15788 whole entry, further chain): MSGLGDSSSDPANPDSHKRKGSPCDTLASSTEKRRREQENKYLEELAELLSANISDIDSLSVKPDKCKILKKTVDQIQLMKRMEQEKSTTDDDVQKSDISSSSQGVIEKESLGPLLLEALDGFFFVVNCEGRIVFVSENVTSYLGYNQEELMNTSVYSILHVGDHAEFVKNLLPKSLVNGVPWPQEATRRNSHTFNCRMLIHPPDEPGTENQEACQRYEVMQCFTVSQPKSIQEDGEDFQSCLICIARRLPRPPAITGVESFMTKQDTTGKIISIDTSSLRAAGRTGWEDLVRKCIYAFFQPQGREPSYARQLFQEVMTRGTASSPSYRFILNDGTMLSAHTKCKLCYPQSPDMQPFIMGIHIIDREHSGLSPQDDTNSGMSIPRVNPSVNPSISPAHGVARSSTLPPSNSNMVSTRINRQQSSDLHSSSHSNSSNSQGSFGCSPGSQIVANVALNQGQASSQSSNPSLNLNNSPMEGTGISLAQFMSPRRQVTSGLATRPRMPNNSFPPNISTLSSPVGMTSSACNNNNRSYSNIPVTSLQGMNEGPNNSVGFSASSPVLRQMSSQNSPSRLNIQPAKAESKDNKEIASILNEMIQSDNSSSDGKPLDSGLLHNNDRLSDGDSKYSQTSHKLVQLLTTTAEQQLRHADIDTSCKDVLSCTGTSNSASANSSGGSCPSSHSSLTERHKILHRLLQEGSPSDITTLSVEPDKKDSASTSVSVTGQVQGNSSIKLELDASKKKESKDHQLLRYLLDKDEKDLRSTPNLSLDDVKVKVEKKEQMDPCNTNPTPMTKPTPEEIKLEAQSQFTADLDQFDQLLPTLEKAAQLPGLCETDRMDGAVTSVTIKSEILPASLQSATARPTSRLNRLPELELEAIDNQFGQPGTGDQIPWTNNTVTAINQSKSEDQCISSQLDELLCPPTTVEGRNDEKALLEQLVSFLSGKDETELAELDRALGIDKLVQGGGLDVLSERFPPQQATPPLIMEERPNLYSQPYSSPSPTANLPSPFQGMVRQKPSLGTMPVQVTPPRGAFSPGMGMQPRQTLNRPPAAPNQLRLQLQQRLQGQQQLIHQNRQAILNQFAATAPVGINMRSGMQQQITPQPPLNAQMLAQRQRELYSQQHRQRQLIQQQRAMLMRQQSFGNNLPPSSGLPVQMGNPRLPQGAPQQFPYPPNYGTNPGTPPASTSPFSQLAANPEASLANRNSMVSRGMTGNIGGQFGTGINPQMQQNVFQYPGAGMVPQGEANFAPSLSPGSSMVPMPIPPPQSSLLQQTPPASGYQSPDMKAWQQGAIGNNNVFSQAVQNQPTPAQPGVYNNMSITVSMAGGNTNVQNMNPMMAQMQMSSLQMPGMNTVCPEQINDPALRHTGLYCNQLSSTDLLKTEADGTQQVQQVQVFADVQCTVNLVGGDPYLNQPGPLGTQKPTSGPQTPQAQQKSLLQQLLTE

[4] = biological target: T3, Peroxisome proliferator-activated receptor gamma/Nuclear receptor coactivator 2 (Homo sapiens, UniProt P37231); assay: TR-FRET dose response biochemical High Throughput Screening assay for agonists of the steroid receptor coactivator 2 (SRC-2) recruitment by the peroxisome proliferator-activated receptor gamma (PPAR gamma): non-selective agonists. [Related pubchem assays: 1297, 1032 ]; assay type: functional
H4 = assay: Luminescence Cell-Based Dose Response HTS to Identify Activators of 5'UTR Stem-Loop Driven Prion Protein mRNA Translation in H4 Neuroglioblastoma Cells. [Related pubchem assays: 1829 (Project Summary), 1814 (Primary HTS)]; assay type: functional; conditions: Homo sapiens
[5] = Luminescence Cell-Based Dose Confirmation HTS to Identify Activators of 5'UTR Stem-Loop Driven Alpha-Synuclein mRNA Translation in H4 Neuroglioblastoma Cells. [Related pubchem assays: 1829 (Project Summary), 1814 (Primary HTS)]; assay type: functional
[6] = THP-1 cell cytotoxicity, dose response, cytotoxicity control for non-replicating M. tuberculosis project (AID 489025); assay type: functional
cells = assay type: functional
[7] = Luminescence Cell-Based Dose Response HTS to Identify Activators of Luciferase Translation or Activity in H4 […] Cells. [Related pubchem assays: 1829 (Project Summary), 1814 (Primary HTS)]; assay type: functional
Aminopeptidase N = biological target: T4, Aminopeptidase N (Plasmodium falciparum FcB1/Columbia, UniProt O96935); assay: P. falciparum M1AAP inhibitors, biochemical, fluorogenic H-Leu-NHMec substrate, 1536-well (AID 1445); design: species or system Plasmodium falciparum 3D7, 3D7
T4 sequence (O96935 whole entry): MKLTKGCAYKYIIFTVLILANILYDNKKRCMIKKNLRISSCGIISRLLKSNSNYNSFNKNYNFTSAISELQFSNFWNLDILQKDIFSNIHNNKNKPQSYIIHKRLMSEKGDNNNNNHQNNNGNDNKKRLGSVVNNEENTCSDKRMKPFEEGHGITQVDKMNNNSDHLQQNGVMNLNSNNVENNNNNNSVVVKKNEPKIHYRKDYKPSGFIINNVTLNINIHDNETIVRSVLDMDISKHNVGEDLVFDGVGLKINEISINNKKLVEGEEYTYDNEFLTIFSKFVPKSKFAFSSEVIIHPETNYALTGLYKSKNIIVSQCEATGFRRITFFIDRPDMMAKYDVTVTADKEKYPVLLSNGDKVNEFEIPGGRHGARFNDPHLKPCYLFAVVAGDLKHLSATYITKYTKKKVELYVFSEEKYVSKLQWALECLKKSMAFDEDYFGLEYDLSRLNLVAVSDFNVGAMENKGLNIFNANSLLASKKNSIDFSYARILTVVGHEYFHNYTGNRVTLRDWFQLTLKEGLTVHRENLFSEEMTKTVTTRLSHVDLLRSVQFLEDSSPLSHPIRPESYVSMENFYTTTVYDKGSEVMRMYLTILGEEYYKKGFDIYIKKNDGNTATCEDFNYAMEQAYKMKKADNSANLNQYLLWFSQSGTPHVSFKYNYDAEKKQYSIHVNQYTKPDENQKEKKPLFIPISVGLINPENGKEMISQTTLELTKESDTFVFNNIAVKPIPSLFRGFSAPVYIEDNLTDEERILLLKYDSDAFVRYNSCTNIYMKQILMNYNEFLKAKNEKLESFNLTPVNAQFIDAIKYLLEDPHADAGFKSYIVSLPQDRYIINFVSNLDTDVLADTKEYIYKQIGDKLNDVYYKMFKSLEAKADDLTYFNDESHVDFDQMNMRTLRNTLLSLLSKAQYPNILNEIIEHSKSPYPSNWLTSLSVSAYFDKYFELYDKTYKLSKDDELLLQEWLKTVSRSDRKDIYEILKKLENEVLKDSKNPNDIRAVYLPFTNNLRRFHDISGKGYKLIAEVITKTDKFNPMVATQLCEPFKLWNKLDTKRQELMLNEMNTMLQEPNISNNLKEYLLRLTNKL

[8] = biological target: T5, Ubiquitin-conjugating enzyme E2 N (Homo sapiens, UniProt P61088); assay type: functional
T5 sequence (P61088 whole entry): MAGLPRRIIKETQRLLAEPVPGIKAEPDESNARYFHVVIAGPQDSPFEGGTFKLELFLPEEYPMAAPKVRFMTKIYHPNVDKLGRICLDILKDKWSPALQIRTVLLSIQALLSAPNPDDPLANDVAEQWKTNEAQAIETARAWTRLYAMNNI

[9] = biological target: T5, Ubiquitin-conjugating enzyme E2 N; assay type: functional; remark: listed apart in the source
Bcl-2-related protein A1 = biological target: T6, Bcl-2-related protein A1 (Mus musculus, UniProt Q07440); assay type: functional;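 also: confirmatory dose–response counterscreen on Bfl-1, used to check hits from a UBC13 polyubiquitin inhibitor campaign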
T6 sequence (Q07440 whole entry): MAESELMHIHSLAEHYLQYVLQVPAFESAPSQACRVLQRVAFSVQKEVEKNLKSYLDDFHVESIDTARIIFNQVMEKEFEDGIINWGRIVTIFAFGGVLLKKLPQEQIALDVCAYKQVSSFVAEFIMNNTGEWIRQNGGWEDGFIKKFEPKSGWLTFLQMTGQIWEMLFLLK

Escherichia coli = assay: microbe, parasite or virus in culture
[10] = biological target: T7, Short transient receptor potential channel 4 (Mus musculus, UniProt Q9QUQ5); assay: mouse TRPC4 channel activators, dose response, cell-based, HEK293 TRPC4/mu-opioid, Fluo-4 calcium (AID 434937); assay type: functional
T7 sequence (Q9QUQ5 whole entry): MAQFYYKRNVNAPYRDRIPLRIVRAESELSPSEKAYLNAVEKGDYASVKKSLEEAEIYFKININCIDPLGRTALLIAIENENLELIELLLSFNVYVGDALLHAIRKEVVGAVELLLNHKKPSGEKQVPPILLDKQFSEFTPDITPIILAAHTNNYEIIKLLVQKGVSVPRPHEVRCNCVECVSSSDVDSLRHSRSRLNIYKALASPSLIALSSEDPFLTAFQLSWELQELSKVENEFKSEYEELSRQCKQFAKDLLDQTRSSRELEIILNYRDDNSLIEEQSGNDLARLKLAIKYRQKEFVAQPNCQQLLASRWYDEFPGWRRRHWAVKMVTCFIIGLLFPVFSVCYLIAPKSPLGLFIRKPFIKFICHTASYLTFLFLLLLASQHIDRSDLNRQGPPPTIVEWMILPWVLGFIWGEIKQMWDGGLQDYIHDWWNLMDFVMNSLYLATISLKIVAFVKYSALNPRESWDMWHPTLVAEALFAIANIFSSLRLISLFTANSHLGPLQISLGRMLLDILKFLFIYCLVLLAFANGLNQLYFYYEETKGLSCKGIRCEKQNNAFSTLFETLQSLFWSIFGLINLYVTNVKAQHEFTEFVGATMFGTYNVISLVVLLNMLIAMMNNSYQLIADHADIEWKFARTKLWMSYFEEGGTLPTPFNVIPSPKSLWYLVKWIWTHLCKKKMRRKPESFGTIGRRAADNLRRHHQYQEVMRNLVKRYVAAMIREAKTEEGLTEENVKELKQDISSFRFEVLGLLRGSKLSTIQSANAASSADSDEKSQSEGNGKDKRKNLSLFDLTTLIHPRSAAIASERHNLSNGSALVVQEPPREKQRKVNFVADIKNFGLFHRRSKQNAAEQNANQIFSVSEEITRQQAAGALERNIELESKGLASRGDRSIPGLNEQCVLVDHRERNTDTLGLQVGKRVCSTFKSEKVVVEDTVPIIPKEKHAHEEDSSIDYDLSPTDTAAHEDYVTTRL

Cytochrome P450 2C19 = Cytochrome P450 2C19 (Homo sapiens, UniProt P33261); assay: Cytochrome panel assay with activity outcomes. Panel member name: p450-cyp2c19 Compounds with AC50 equal or less than 10 uM are considered active; assay type: functional
Chain of Cytochrome P450 2C19 (P33261 whole entry): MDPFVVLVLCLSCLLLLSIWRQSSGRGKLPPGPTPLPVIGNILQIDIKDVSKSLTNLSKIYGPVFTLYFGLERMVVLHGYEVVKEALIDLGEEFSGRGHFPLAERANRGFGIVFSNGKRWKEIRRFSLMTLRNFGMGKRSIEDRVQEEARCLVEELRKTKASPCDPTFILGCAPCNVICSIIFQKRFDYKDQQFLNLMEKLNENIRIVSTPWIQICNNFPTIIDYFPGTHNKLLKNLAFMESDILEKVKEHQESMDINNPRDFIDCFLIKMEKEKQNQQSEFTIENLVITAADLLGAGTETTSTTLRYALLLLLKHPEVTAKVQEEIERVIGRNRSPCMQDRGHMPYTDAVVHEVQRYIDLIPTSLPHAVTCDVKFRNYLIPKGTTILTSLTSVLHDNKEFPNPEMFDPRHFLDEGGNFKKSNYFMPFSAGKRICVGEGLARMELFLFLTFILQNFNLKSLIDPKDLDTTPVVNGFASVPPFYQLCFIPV

[11] = inhibitors of Vif binding to APOBEC3G peptide, primary screen, biochemical, TR-FRET, GST-Vif 1-94, biotin-A3G peptide, dose response retest (AID 1117319); assay type: functional;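 also: TR-FRET signal of purified GST-Vif binding a biotinylated A3G peptide; inhibitors lower the FRET signal by blocking Vif and A3G binding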
[12] = biological target: T1, Peroxisome proliferator-activated receptor gamma/Nuclear receptor coactivator 3; assay type: functional
[13] = cytotoxicity toward NIH3T3 fibroblasts, dose response, counter-screen, cell-based, ATP luminescence, mouse fibroblasts (AID 2010); assay type: functional;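 also: cells exposed to compound for about 90 hours before reading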
[14] = biological target: T3, Peroxisome proliferator-activated receptor gamma/Nuclear receptor coactivator 2; assay type: functional
[15] = inhibitors of intracellular T. cruzi replication, confirmation, NIH3T3 host cells, beta-gal luminescence (AID 2044); assay type: functional, cell-based;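 also: intracellular parasites grown in NIH/3T3 mouse fibroblasts as host cells; luminescent beta-galactosidase reporter signal from transgenic T. cruzi replicating inside host cells; inhibitors lower the luminescence signal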
[16] = biological target: T2, Peroxisome proliferator-activated receptor gamma/Nuclear receptor coactivator 1; assay type: functional

CCCc1cc(C(=O)Nc2cc(C)ccc2O)no1
IC50 [1]: > 80 µM (inactive)

Cn1cc(Cl)c(-c2nnc(S)n2-c2ccccc2)n1
EC50 [2]: > 79.4 µM (not active) | EC50 [3]: > 79.4 µM (inactive) | EC50 [4]: > 79.4 µM (not active)

COc1cc2c(cc1OC)CN(C(=O)c1ccc([N+](=O)[O-])o1)CC2
EC50 (H4): > 120 µM (not active) | EC50 [5]: 11.6 µM (active) | CC50 [6]: > 40 µM (active) | IC50 (cells): 0.14 µM (active) | EC50 [7]: 37.5 µM (active)

C=C(C)c1cccc(C(C)(C)NC(=O)Nc2ccc(C)cn2)c1
IC50 (Aminopeptidase N): 41.3 µM (active)

Cn1c(=O)c2c(ncn2Cc2ccc(Cl)c(Cl)c2)n(C)c1=O
IC50 [8]: 16.3 µM (active) | IC50 [9]: 7.05 µM (active) | IC50 (Bcl-2-related protein A1): > 20 µM (inactive)

C=CC[C@@H](CC/C=C/C=C/CC/C=C\[C@@H]1CSC([C@@H]2C[C@@H]2C)=N1)OC
IC50 [1]: > 80 µM (inactive)

CC(=O)c1ccc(NC(=O)CSc2nnc(C3CC3)n2C2CC2)cc1
AC50 (Escherichia coli): 109 µM (active)

Cc1sc(NC(=O)c2ccccc2)c(C(=O)NCCN(C)C)c1C
EC50 [10]: 3.35 µM (active) | AC50 (Cytochrome P450 2C19): inconclusive | IC50 [11]: > 100 µM (active)

c1ccc2c(c1)CC/C2=N/Nc1nc2ccccc2[nH]1
EC50 [12]: > 79.4 µM (not active) | EC50 [13]: > 30 µM (not active) | EC50 [14]: > 79.4 µM (not active) | EC50 [15]: 2.6 µM (active) | EC50 [16]: > 79.4 µM (not active)

NC(=O)N/N=C\c1cc(Br)ccc1O
IC50 (Aminopeptidase N): 50.6 µM (active)

CCN(CC)CCOC(=O)c1ccc(NC(=O)c2cn(-c3ccccc3)nc2-c2cccs2)cc1
IC50 [8]: 8.78 µM (active) | IC50 [9]: > 20 µM (inactive) | IC50 (Bcl-2-related protein A1): > 20 µM (inactive)
